pIC50: −log10 of the molar value.

The target of one experiment is BRD4(BD1) (Homo sapiens (Human), UniProt O60885). The experiment in a line: In vitro enzyme inhibition assay (BRD4 AlphaScreen, H4-tetraacetyl peptide). It is filed as binding. As to conditions: BRD4(BD1) 2 nM, peptide 15 nM. The essentials: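 His-tagged BRD4(BD1), 2 nM, with 15 nM biotinylated H4K5/8/12/16(Ac) peptide in HEPES pH 7.3 buffer, 0.4% DMSO, 20 min RT with compound. Streptavidin donor and Ni-chelate acceptor beads (5 μg/mL) then equilibrated 2 h. AlphaScreen signal; IC50 by four-parameter fit.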
A general note: Alpha assays give light when donor and acceptor beads are brought close together.

Experiment [1] has as its system Raji, human Burkitts lymphoma cells. The experiment in a line: Cell-MTS cellular proliferation assay, Raji. It is filed as cell-based. To be noted: Homo sapiens, 168 hr incubation. The procedure, abridged:
(§1)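 Cells seeded to reach ~90% confluence at 7 days (Raji 15,000, HL-60 5,000, NCI-H460 3,000 per well); 11-point compound dilution, 100 µM to 2.0 nM final, added 24 h after plating. Exposure 168 hr at 37 °C, 5% CO2; MTS read at OD490. IC50 from background-subtracted OD490 normalized to DMSO controls.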
Background: Tetrazolium assays rely on reduction of a dye to a coloured formazan, in cell work by metabolically active cells.

Experiment [2] relates to HL-60, human proleukemia cells. The experiment in a line: Cell-MTS cellular proliferation assay, HL-60. It counts as cell-based. To be noted: Homo sapiens, HL-60 cells, 168 hr incubation. The procedure, abridged:
as §1

The subject of experiment [3] is NCI-H460, human non-small cell lung cancer cells. The experiment in a line: Cell-MTS cellular proliferation assay, NCI-H460. To be noted: Homo sapiens, 168 hr incubation. It counts as cell-based. The essentials:
as §1

The pIC50 is the negative decadic logarithm of the IC50, by convention in mol/L. Lower therefore signals a large IC50. Take `COc1cc(-c2cc(NS(C)(=O)=O)c3nc(C(F)(F)F)n(CC4CC4)c3c2)cn(C)c1=O` [Example 93, N-[1-(cyclopropylmethyl)-6-(5-methoxy-1-methyl-6-oxopyridin-3-yl)-2-(trifluoromethyl)benzimidazol-4-yl]methanesulfonamide]: the pIC50 on BRD4(BD1) is at least 6.30; in experiment [1], at least 6.30; in experiment [2] it was at least 6.30; in experiment [3], below 5.30.
As for `CCS(=O)(=O)N1CCOc2cc(OCC3CC3)c(-c3cn(C)c(=O)c4ccccc34)cc21` [Example 49, 4-[7-(cyclopropylmethoxy)-4-ethylsulfonyl-2,3-dihydro-1,4-benzoxazin-6-yl]-2-methylisoquinolin-1-one], the pIC50 on BRD4(BD1) is at least 6.30; in experiment [1] it was at least 6.30; in experiment [2] it was at least 6.30; in experiment [3], 5.30 to 6.30.
As to `Cc1cc(-c2cc(S(C)(=O)=O)c3nc(C)n(Cc4ccccc4)c3c2)cn(C)c1=O` [Example 67, 5-(3-benzyl-2-methyl-7-methylsulfonylbenzimidazol-5-yl)-1,3-dimethylpyridin-2-one], the pIC50 was at least 6.30 at BRD4(BD1), at least 6.30 in experiment [1], at least 6.30 in experiment [2] and below 5.30 in experiment [3].
For `CCOc1nc2c(NS(C)(=O)=O)cc(-c3cc(C)c(=O)n(C)c3)cc2n1CC1CC1` [Example 72, N-[1-(cyclopropylmethyl)-6-(1,5-dimethyl-6-oxopyridin-3-yl)-2-ethoxybenzimidazol-4-yl]methanesulfonamide], the pIC50 was at least 6.30 against BRD4(BD1), at least 6.30 in experiment [1], at least 6.30 in experiment [2] and 5.30 to 6.30 in experiment [3].
For the compound `CCS(=O)(=O)Nc1cc(-c2cn(C)c(=O)c3ccccc23)c2oc(C3CC3)nc2c1` [Example 48, N-[2-cyclopropyl-7-(2-methyl-1-oxoisoquinolin-4-yl)-1,3-benzoxazol-5-yl]ethanesulfonamide], the pIC50 (on BRD4(BD1); in experiment [1]; in experiment [2]; in experiment [3]) was at least 6.30 in each case.
On to `Cn1cc(-c2cc(NS(C)(=O)=O)cc3cc(-c4ccccc4)oc23)c2ccccc2c1=O` [Example 84, N-[7-(2-methyl-1-oxoisoquinolin-4-yl)-2-phenyl-1-benzofuran-5-yl]methanesulfonamide], for which the pIC50 (against BRD4(BD1); in experiment [1]; in experiment [2]; in experiment [3]) was at least 6.30 in each case.
For the compound `Cc1cc(-c2cc(S(C)(=O)=O)cc3cc(C4CC4)oc23)cn(C)c1=O` [Example 23, 5-(2-cyclopropyl-5-methylsulfonyl-1-benzofuran-7-yl)-1,3-dimethylpyridin-2-one], the pIC50 against BRD4(BD1) is at least 6.30; in experiment [1], 5.30 to 6.30; in experiment [2] it was at least 6.30; in experiment [3], below 5.30.
For `Cc1cc(-c2cc(NS(C)(=O)=O)ccc2Oc2ccc(F)cc2F)c2n(c1=O)CC(C)(C)C2` [Example 88, N-[4-(2,4-difluorophenoxy)-3-(2,2,6-trimethyl-5-oxo-1,3-dihydroindolizin-8-yl)phenyl]methanesulfonamide], the pIC50 against BRD4(BD1) was at least 6.30; in experiment [1], at least 6.30; in experiment [2], at least 6.30; in experiment [3], below 5.30.
For `CCS(=O)(=O)N1CCOc2cc(OCC3CC3)c(-c3cc(C)c(=O)n(C)c3)cc21` [Example 50, 5-[7-(cyclopropylmethoxy)-4-ethylsulfonyl-2,3-dihydro-1,4-benzoxazin-6-yl]-1,3-dimethylpyridin-2-one], the pIC50 on BRD4(BD1) is at least 6.30; in experiment [1], at least 6.30; in experiment [2], at least 6.30; in experiment [3] it was below 5.30.
On to `Cn1cc(-c2cc3c(cc2OCC2CC2)CCN3S(C)(=O)=O)c2ccccc2c1=O` [Example 13, 4-[5-(cyclopropylmethoxy)-1-methylsulfonyl-2,3-dihydroindol-6-yl]-2-methylisoquinolin-1-one], for which the pIC50 on BRD4(BD1) was at least 6.30; in experiment [1], at least 6.30; in experiment [2], at least 6.30; in experiment [3], 5.30 to 6.30.
`Cn1cc(-c2cc(NS(C)(=O)=O)c3c(c2)N(Cc2ccccc2)CC3)c2ccccc2c1=O` [Example 20, N-[1-benzyl-6-(2-methyl-1-oxoisoquinolin-4-yl)-2,3-dihydroindol-4-yl]methanesulfonamide]: the pIC50 was at least 6.30 at BRD4(BD1), at least 6.30 in experiment [1], at least 6.30 in experiment [2] and 5.30 to 6.30 in experiment [3].
Consider `Cc1cc(-c2cc(NS(C)(=O)=O)c3nc(C(F)(F)F)n(CC4CC4)c3c2)cn(C)c1=O` [Example 92, N-[1-(cyclopropylmethyl)-6-(1,5-dimethyl-6-oxopyridin-3-yl)-2-(trifluoromethyl)benzimidazol-4-yl]methanesulfonamide], for which the pIC50 was at least 6.30 on BRD4(BD1), at least 6.30 in experiment [1], at least 6.30 in experiment [2] and 5.30 to 6.30 in experiment [3].
For the compound `COc1cc(-c2cc3c(S(C)(=O)=O)cccc3n2CCC2CC2)cn(C)c1=O` [Example 91, 5-[1-(2-cyclopropylethyl)-4-methylsulfonylindol-2-yl]-3-methoxy-1-methylpyridin-2-one], the pIC50 at BRD4(BD1) was at least 6.30; in experiment [1] it was at least 6.30; in experiment [2] it was at least 6.30; in experiment [3], below 5.30.
For the compound `COc1nc2c(CS(C)(=O)=O)cc(-c3cc(C)c(=O)n(C)c3)cc2n1CC1CC1` [Example 99, 5-[3-(cyclopropylmethyl)-2-methoxy-7-(methylsulfonylmethyl)benzimidazol-5-yl]-1,3-dimethylpyridin-2-one], the pIC50 on BRD4(BD1) is at least 6.30; in experiment [1], at least 6.30; in experiment [2] it was at least 6.30; in experiment [3], below 5.30.
Regarding `CCN1Cc2cc(OCC3CC3)c(-c3cn(C)c(=O)c4ccccc34)cc2S1(=O)=O` [Example 7, 4-[5-(cyclopropylmethoxy)-2-ethyl-1,1-dioxo-3H-1,2-benzothiazol-6-yl]-2-methylisoquinolin-1-one], the pIC50 on BRD4(BD1) was at least 6.30; in experiment [1] it was at least 6.30; in experiment [2] it was at least 6.30; in experiment [3] it was 5.30 to 6.30.
In the case of `COc1cc(-c2cc3c(S(C)(=O)=O)nn(C)c3cc2OCC2CC2)cn(C)c1=O` [Example 59, 5-[6-(cyclopropylmethoxy)-1-methyl-3-methylsulfonylindazol-5-yl]-3-methoxy-1-methylpyridin-2-one], the pIC50 against BRD4(BD1) is at least 6.30; in experiment [1], at least 6.30; in experiment [2], at least 6.30; in experiment [3], below 5.30.

For the origin of these results see patent US10807982B2, “Bromodomain inhibitors” (CELGENE QUANTICEL RESEARCH, INC., priority 2015, dated 2020).
